Molecules are shown by their SMILES.

This assay relates to monosodium iodoacetate ("MIA")-induced knee joint arthritis. Nature of the assay: Monosodium iodoacetate (MIA)-induced osteoarthritis joint pain model, acute dosing paradigm (hind paw weight distribution, incapacitance tester). The format is in vivo, rat (male Wistar). The following applies: for Change in Hind Paw Weight Distribution: Day 7 post-MIA, mean, n=6. The protocol:
Monosodium Iodoacetate (“MIA”)-Induced Osteoarthritis:
Male Wistar rats (175-200 g) were housed in solid bottom isolator cages, […], with corncob bedding on a 12 hour:12 hour light:dark cycle. Animals were fed standard rat chow with water available ad libitum.
The rats were anesthetized with 5% volume/volume (“v/v”) isoflurane gas and maintained with 2% v/v isoflurane gas. The anesthetized rats were given a single intra-articular injection of 1 mg of MIA through the infrapatellar ligament of the right knee. MIA was dissolved in physiologic saline and administered in a volume of 50 μL. The contralateral control knee was injected with 50 μL of physiologic saline. Administration of isoflurane gas was discontinued, and the rats became fully conscious about 5 minutes later.
Shifts in hind paw weight distribution from the right to the left hind paws supporting the right (arthritic) and the left (contralateral control) hind leg knee joints were utilized as an index of joint pain and as a measure of compound efficacy. An incapacitance tester (Model 2KG, Linton Instrumentation, UK) was employed for determination of hind paw weight distribution. Each data point is the mean of three readings of 5 seconds duration.
The acute dosing paradigm used herein relates to osteoarthritis signs such as mobility and joint function and osteoarthritis symptoms such as joint pain. In this dosing paradigm, changes in hind paw weight distribution were determined early on Day 7 post-MIA injection, as described previously, to establish a baseline pain reading. […] Changes in hind paw weight distribution were determined 2, 4 and 6 hours post-compound administration.
MIA was injected into the right knee and saline into the left knee of all rats on Day 0. […] Two, four, and six hours later, the rats were re-assessed.
Statistically significant differences were determined by one-way ANOVA followed by Dunnett's multiple comparisons procedure. Data are expressed as mean±SEM. N=6 rats per group.

For the compound `CC(C)(CCCCOCCCCC(C)(C)C(=O)[O-])C(=O)[O-].[Ca+2]` [Compound A, 6-(5-carboxy-5-methyl-hexyloxy)-2,2-dimethyl-hexanoic acid calcium salt], the “Change in Hind Paw Weight Distribution” value by setting is: (2 hr post-dose, Compound A 10 mg/kg PO) 21 g; (4 hr post-dose, Compound A 10 mg/kg PO) 15 g; (6 hr post-dose, Compound A 10 mg/kg PO) 21 g; (Pre-Dose (Baseline), group later given Compound A 10 mg/kg PO) 32 g. Further, for the setting “Compound A 10 mg/kg PO, 2, 4 and 6 hour post-dose time points”, the “Effect on shift in weight bearing potential (joint pain) versus vehicle, in words” value was “altered the shift in weight bearing potential (joint pain) in arthritic rats at the 2, 4 and 6 hour post-dose time points in a statistically significant manner”.

These data come from patent US20050026979A1, “Methods for treating inflammation and inflammation-associated diseases with a statin and ether” (priority 2003, published 2005).
